Laboratory results: patent publication US11718628B2, “SREBP inhibitors comprising a 6-membered central ring” (Capulus Therapeutics, LLC, priority 2018, dated 2023)
Where two headings read alike, the source gives them in different places.

Experiments:
[1] = Log D by octanol/aqueous buffer partitioning; assay type: physicochemical; conditions: 1-octanol/aqueous buffer; pH 7.4, 1-octanol/buffer; read-out: LogD
Method: The Log D of selected compounds was evaluated by octanol/aqueous buffer partitioning. 500 μL of organic phase (1-octanol) was added to each well of a 2 mL deep well plate, followed by 500 μL of buffer and 15 μL of test compound in DMSO (0.15 mM). The plate was vortexed for 10 seconds and incubated at room temperature for 1 hr on a plate shaker at 200 rpm. After incubation, the samples were allowed to equilibrate for 20 min and then centrifuged at 4000 rpm for 30 min for complete phase separation. The distribution of test compound in buffer and octanol phase was analyzed by HPLC-UV. Log D=Log (Area of Octanol/Area of Buffer).

[2] = In vivo pharmacokinetic properties in rats (IV and PO); design: species or system male Sprague Dawley rats; conditions: male, Sprague Dawley, rat, plasma; for clearance: read-out: Intravenous Delivery (IV) CL; for Vd: read-out: Intravenous Delivery (IV) Vd; for bioavailability: PO 10 mg/kg vs IV 2 mg/kg, read-out: % F (Bioavailability of oral delivery); for Tmax: read-out: Oral Administration (PO) Tmax
Outline: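 Male Sprague Dawley rats received 2.00 mg/kg IV via the tail vein, with plasma sampled from a cannulated jugular vein from 0.083 to 24 h. Oral dosing was 10 mg/kg in rats or C57BL/6J mice, sampled at 0.25-24 h by jugular cannula (rats) or retro-orbital plexus (mice).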

[3] = In vivo pharmacokinetic properties in mice (IV and PO); design: species or system C57BL/6J mice; conditions: C57BL/6J, mouse, in vivo
Outline: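 Male C57BL/6J mice received 10 mg/kg orally; plasma sampled by retro-orbital capillary at 0.25–24 h. IV dosing described at 2.00 mg/kg via tail vein, plasma sampled 0.083–24 h.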

[4] = system: liver gene expression (ACACA, ACLY, FASN, LSS, PNPLA3); assay: Liver gene expression in mice after oral administration; assay type: in vivo; conditions: 30 mpk, vs vehicle
Method: (§1) The pharmacodynamic properties of selected compounds were evaluated in mice. The animals were housed in cages with clean bedding, and maintained and monitored for good health in accordance with Test Facility SOPs and at the discretion of the laboratory animal veterinarian. Certified rodent diet was provided. Food and water was available ad libitum. Environmental controls for the animal room were set to maintain a temperature of 22° C. to 25° C., humidity of 40-70% RH, and a 12-hour light/[…]. Normal healthy animals certified by the attending veterinarian were selected and acclimatized for minimum three days prior to initiation of study. Animals were identified with body markings.
(§2) Aliquots of the compounds being evaluated were weighed and triturated with 0.5% methylcellulose (with the addition of 5% N-methyl pyrrolidone when required to remove clumping, as for Z-806) to an appropriate dose concentration. Vials were labeled with the information about study number, test item, concentration and date of preparation. A description of appearance of formulation was recorded (e.g., color, turbidity, etc.). The composition of formulation vehicle was recorded. An aliquot of each dose solution was taken before the dosing began and after dosing was finished, and stored at approximately −20° C. or below for subsequent analysis. The animals were dosed orally through oral gavage needle, and time of dosing was recorded.
(§3) Liver Collection at 6 h or 24 h: Immediately after blood withdrawal for pharmacokinetic evaluation (at 6 or at 24 h), liver tissue was collected without perfusion. Animals were euthanized using carbon dioxide gas in a CO2 chamber. The whole blood was drained by cutting the both side jugular vein and abdominal aorta. The liver was separated out. All the liver samples were divided in two parts. The first part (200 mg approx.) was snap frozen using liquid nitrogen as soon as possible. These samples were immediately transferred to −80° C. for storage. The remaining part was weighed and used for bioanalysis.
RNA Processing and Gene Expression Analysis: Liver Tissue RNA was harvested with the RNEasy kit and 20-100 ng used to synthesize cDNA with random primers following the manufacturer's protocol. Quantitative PCR was performed on 1 pg to 100 ng cDNA for the following genes: ACACA, ACLY, FASN, LSS, PNPLA3. Gene expression levels were determined using ΔΔCT method comparing treated to vehicle treated samples as a baseline, and fold change calculated. The average value for all 5 genes above was averaged and termed to Total Fold Change The results from this evaluation are presented in Table 8.

[5] = Plasma and liver compound levels in mice after oral administration; assay type: in vivo; conditions: mouse, 30 mg/kg, 30 mpk
Method: as §1, §2
After dosing, the mice were anesthetized using gaseous anesthesia. Blood samples were collected through a capillary, guided in retro-orbital plexus, at 6 h or at 24 h. Approximately 100 uL of blood was collected from each mouse, in pre-labeled tubes. The collected blood was stored on ice prior to centrifugation. Blood samples were then centrifuged within 1 hour of collection to separate plasma. Centrifugation was conducted at 2500×g for 15 minutes at 4° C. The plasma was separated and transferred to pre-labeled micro-centrifuge tubes and promptly frozen at −80±10° C. until bioanalysis.
as §3

[6] = 10 mg/kg, heading: Oral Administration AUC0-last, PO, 10 mg/kg
[7] = IV, 2 mg/kg, read-out: Intravenous Delivery (IV) AUC0-last
[8] = IV, 2 mg/kg, read-out: Intravenous Delivery (IV) T1/2 (converted)
[9] = PO, 10 mg/kg, read-out: Oral Administration (PO) T1/2 (converted)

SMILES | AUC(0-t) [2, 6] | AUC(0-t) [2, 7] | clearance ([2]; IV, 2 mg/kg) | half-life [2, 8] | Vd ([2]; IV, 2 mg/kg) | bioavailability [2] | half-life [2, 9] | Tmax ([2]; PO, 10 mg/kg) | melting point | also measured
O=C(c1ccc(-c2cncc(-c3ccnc4c3OCCO4)c2)c(Cl)c1)N1CCC(O)CC1 [Compound Z-806, (3-chloro-4-(5-(2,3-dihydro-[1,4]dioxino[2,3-b]pyridin-8-yl)pyridin-3-yl)phenyl)(4-hydroxypiperidin-1-yl)methanone] | 272 ng·h/mL | 2630 ng·h/mL | 12.8 mL/min/kg | 122 min | 2.26 L/kg | 2.1% | 150 min | 19.8 min |  | LogD [1]: 1.98; bioavailability [3]: 58%; AUC(0-t) ([3]; iv, 2 mg/kg): 1540 ng·h/mL; Vd ([3]; iv, 2 mg/kg): 8.91 L/kg; clearance ([3]; iv, 2 mg/kg): 21 mL/min/kg; half-life ([3]; iv, 2 mg/kg): 293 min; AUC(0-t) ([3]; po, 3 mg/kg): 1370 ng·h/mL; Tmax ([3]; po, 3 mg/kg): 15 min; half-life ([3]; po, 3 mg/kg): 211 min; Total Gene FC Time (6 h) ([4]; 6 h): ++ (0.51-0.7509 = ++); Total Gene FC Time (24 h) ([4]; 24 h): +++ (0-0.509 = +++); concentration at 6 h ([5]; liver, read-out: Liver ng/mg (6 h)): > 1e+06 ng/g; concentration at 24 h ([5]; liver, read-out: Liver ng/mg 24 h): > 1e+06 ng/g; concentration at 6 h ([5]; plasma, read-out: Plasma ng/mL (6 h)): > 1000 ng/mL; concentration at 24 h ([5]; plasma, read-out: Plasma ng/mL (24 h)): > 1000 ng/mL
COc1c(-c2ccnc(C(C)(C)C)c2)cncc1-c1ccc(C(=O)N2CCC(O)CC2)cc1Cl [Compound Z-840, (4-(2′-(tert-butyl)-4-methoxy-[3,4′-bipyridin]-5-yl)-3-chlorophenyl)(4-hydroxypiperidin-1-yl)methanone] |  |  |  |  |  |  |  |  | 105 to 109 °C | 
CC(C)(C)c1cc(-c2cncc(-c3ccc(C(=O)N4CCC(O)CC4)cc3)c2F)ccn1 [Compound Z-866, (4-(2′-(tert-butyl)-4-fluoro-[3,4′-bipyridin]-5-yl)phenyl)(4-hydroxypiperidin-1-yl)methanone] | 151 ng·h/mL | 1070 ng·h/mL | 31.7 mL/min/kg | 54.6 min | 2.54 L/kg | 2.8% | 41.4 min | 30 min | 100 to 104 °C | 
